Data taken from US6924099B1, “Biomarkers and assays for carcinogenesis” (G.D. Searle & Co., priority 1999, dated 2005).

Legend:
rat liver mRNA [1] = experiment: Validation of AFLP biomarkers by rt-PCR (Taqman) in liver of phenobarbital-treated rats; assay type: in vivo; settings: for Fold Change 2-week: 2 weeks phenobarbital; for Fold Change 13-week: 13 weeks phenobarbital 200 mg/kg oral gavage
Experimental: After AFLP experiments were conducted, and results analyzed, the effects of phenobarbital on the expression of several biomarkers were validated. RNA was extracted from the same liver samples used in the AFLP study, in addition to liver samples from rats treated with phenobarbital for 2-weeks, followed by reverse transcription reactions to generate cDNA, followed by PCR, using Taqman technology. The genes analyzed for phenobarbital-induced alterations, and the corresponding AFLP sequence numbers are listed in Table 5, and a graph and a chart of the actual results are in Table 6 and FIG. 1.
Eleven of the 17 (65%) genes analyzed were also determined to be differentially expressed using rt-PCR. However, this is based on comparisons at the same timepoint (13 weeks). When the rt-PCR analyses performed on the 2 week samples are considered, another marker (S-033) is found to be differentially expressed. Theoretically, differences in sensitivity and or specificity between the two techniques could be accounted for these minor discrepancies. However, S-033 is an example of how AFLP has identified biomarkers which are optimal for carcinogen detection at timepoints other than 13 weeks.

[2] = system: cellular mRNAs in rat liver; experiment: AFLP-based Transcript Imaging of liver mRNAs of phenobarbital-treated rats; assay type: in vivo; settings: for Fold Change AFLP: 13 weeks phenobarbital 200 mg/kg oral gavage
Experimental: Rats were treated with phenobarbital for thirteen weeks or in a separate experiment, for 5 days. Liver mRNAs were extracted and probed for those mRNAs specifically altered by phenobarbital treatment by comparing with mRNA expression in untreated rats. The relative abundance of cellular mRNAs in rat liver was determined using PE GenScope's AFLP (Amplified Fragment Length Polymorphism)-based Transcript Imaging technology. The mRNA is converted into double-stranded cDNA, which is then cut with restriction enzymes. The resulting restriction fragments are tagged with specific adapters of known sequences, which allows for subsequent amplification of the fragments under highly stringent conditions. Similar technology has been used in plants (Money. T. et al., Nucleic Acids Res. 24:2616-2617 (1996), incorporated by reference in its entirety).

rat liver mRNA [3] = experiment: RT-PCR of mRNAs for three phenobarbital-induced genes; settings: oral gavage 200 mg/kg, 88 days or 5 days
Experimental: Specifically, rats were treated by oral gavage for 88 days in the 13 week experiment, or for 5 days with 200 mg/kg phenobarbital or control vehicle.

[4] = SEQ NO. 4 (Rat aldehyde dehydrogenase) mRNA
[5] = SEQ NO. 10 (Rat vitamin D-binding protein) mRNA
[6] = SEQ NO. 25 (Rat cytochrome B) mRNA
[7] = SEQ NO. 34 (Rat liver catalase) mRNA
[8] = SEQ NO. 38 (Rat alpha-2u globulin) mRNA
[9] = SEQ NO. 40 (Rat NADP-dep.isocitrate dehydrogenase) mRNA
[10] = SEQ NO. 42 (Mouse JAK1 (protein tyrosine kinase)) mRNA
[11] = SEQ NO. 46 (Rat cathepsin B) mRNA
[12] = SEQ NO. 52 ((s)-2-hydroxy acid oxidase) mRNA
[13] = SEQ NO. 92 (Rat nicotinic receptor alpha 7 subunit) mRNA
[14] = SEQ NO. 114 (Rat delta-aminolevulinate synthase) mRNA
[15] = SEQ NO. 116 (Estrogen sulfotransferase) mRNA
[16] = SEQ NO. 129 (Glutathione S-transferase) mRNA
[17] = SEQ NO. 230 (Rat carboxylesterase) mRNA

CCC1(c2ccccc2)C(=O)NC(=O)NC1=O [phenobarbital]
Fold Change 2-week (rat liver mRNA [1]; SEQ NO. 3 (Rat P-450) mRNA): 1.34 fold | Fold Change 13-week (rat liver mRNA [1]; SEQ NO. 3 (Rat P-450) mRNA): 1.85 fold | Fold Change 2-week (rat liver mRNA [1]; [4]): 16.36 fold | Fold Change 13-week (rat liver mRNA [1]; [4]): 12.88 fold | Fold Change 2-week (rat liver mRNA [1]; SEQ NO. 6 (Rat UDPGT1.1) mRNA): 0.93 fold | Fold Change 13-week (rat liver mRNA [1]; SEQ NO. 6 (Rat UDPGT1.1) mRNA): 1.5 fold | Fold Change 2-week (rat liver mRNA [1]; [5]): 0.66 fold | Fold Change 13-week (rat liver mRNA [1]; [5]): 0.79 fold | Fold Change 2-week (rat liver mRNA [1]; [6]): 1.85 fold | Fold Change 13-week (rat liver mRNA [1]; [6]): 0.75 fold | Fold Change 2-week (rat liver mRNA [1]; [7]): 0.79 fold | Fold Change 13-week (rat liver mRNA [1]; [7]): 0.45 fold | Fold Change 2-week (rat liver mRNA [1]; [8]): 0.35 fold | Fold Change 13-week (rat liver mRNA [1]; [8]): 0.03 fold | Fold Change 2-week (rat liver mRNA [1]; [9]): 0.88 fold | Fold Change 13-week (rat liver mRNA [1]; [9]): 1.14 fold | Fold Change 2-week (rat liver mRNA [1]; [10]): 0.8 fold | Fold Change 13-week (rat liver mRNA [1]; [10]): 0.83 fold | Fold Change 2-week (rat liver mRNA [1]; [11]): 0.87 fold | Fold Change 13-week (rat liver mRNA [1]; [11]): 1.41 fold | Fold Change 2-week (rat liver mRNA [1]; [12]): 0.31 fold | Fold Change 13-week (rat liver mRNA [1]; [12]): 0.09 fold | Fold Change 2-week (rat liver mRNA [1]; [13]): 0.45 fold | Fold Change 13-week (rat liver mRNA [1]; [13]): 0.72 fold | Fold Change 2-week (rat liver mRNA [1]; [14]): 1.22 fold | Fold Change 13-week (rat liver mRNA [1]; [14]): 4.03 fold | Fold Change 2-week (rat liver mRNA [1]; [15]): 0.81 fold | Fold Change 13-week (rat liver mRNA [1]; [15]): 0.15 fold | Fold Change 2-week (rat liver mRNA [1]; [16]): 2.52 fold | Fold Change 13-week (rat liver mRNA [1]; [16]): 4.03 fold | Fold Change 2-week (rat liver mRNA [1]; SEQ NO. 179 (Rat UDPGT) mRNA): 14.11 fold | Fold Change 13-week (rat liver mRNA [1]; SEQ NO. 179 (Rat UDPGT) mRNA): 9.05 fold | Fold Change 2-week (rat liver mRNA [1]; [17]): 4.24 fold | Fold Change 13-week (rat liver mRNA [1]; [17]): 5.74 fold | Down-regulation of the sequences of Table 3 (SEQ NO 419-457) ([2]; 5 weeks of treatment): at least 1.7 fold | Up-regulation of the sequences of Table 4 (SEQ NO 458-489) ([2]; 5 weeks of treatment): at least 1.7 fold | Down-regulation of the sequences of Table 1 (SEQ NO 275-318) ([2]; 13 weeks of treatment): at least 1.7 fold | Up-regulation of the sequences of Table 2 (SEQ NO 319-418) ([2]; 13 weeks of treatment): at least 1.7 fold | Fold Change AFLP ([2]; SEQ NO. 3 (Rat P-450) mRNA): 2.3 fold | Fold Change AFLP [2, 4]: 8.2 fold | Fold Change AFLP ([2]; SEQ NO. 6 (Rat UDPGT1.1) mRNA): 4.6 fold | Fold Change AFLP [2, 5]: 1.7 fold | Fold Change AFLP [2, 6]: 4.2 fold | Fold Change AFLP [2, 7]: 16 fold | Fold Change AFLP [2, 8]: 0.04 fold | Fold Change AFLP [2, 9]: 2.5 fold | Fold Change AFLP [2, 10]: 1.9 fold | Fold Change AFLP [2, 11]: 2.3 fold | Fold Change AFLP [2, 12]: 0.3 fold | Fold Change AFLP [2, 13]: 6.3 fold | Fold Change AFLP [2, 14]: 3.8 fold | Fold Change AFLP [2, 15]: 0.32 fold | Fold Change AFLP [2, 16]: 4 fold | Fold Change AFLP ([2]; SEQ NO. 179 (Rat UDPGT) mRNA): 10.5 fold | Fold Change AFLP [2, 17]: 1.3 fold | Average expression level of P450 2B1 mRNA as compared to control rats (rat liver mRNA [3]): substantial induction
